Experimental data: patent US9561210B2, “Therapeutic agent for ocular disease” (AskAt Inc., priority 2013, dated 2017)

Key:
[1] = tested on: choroidal neovascularization; assay: Laser-induced choroidal neovascularization (CNV) model; format: in vivo, male C57BL/6J mouse; settings: in comparison to the vehicle-treated group
Description: Laser-Induced Choroidal Neovascularization (CNV) Model A male C57BL/6J mouse is used. Mydrin P ophthalmic solution (registered trademark, Santen Pharmaceutical) is instilled into the right eye of the mouse to cause mydriasis. Animals are anesthetized, and laser irradiation is performed on around the circumference of the optic disk with eight equally space using a laser photocoagulation apparatus. After photocoagulation, intravitreal administration of drugs to the right eye (administering 2 microL of a solution of 60 microM and 600 microM using a solvent obtained by mixing 0.1N NaOH and pH 7.2 PBS containing 1.5×10^-3N HCl, at the ratio of 16:84) or oral administration/subcutaneous administration/intraperitoneal administration is conducted. After instillation of […] (registered trademark, Daiichi Sankyo) ophthalmic solution 0.5% into the right eye, the ocular fundus photography is promptly performed using an ocular fundus camera. […] Choroidal flat mounts specimens are observed using a confocal laser scanning microscope, and the CNV area of the image is calculated using the analysis software OLYMPUS FLUOVIEW FV1000.

[2] = tested on: human retinal microvascular endothelial cells (HRMEC); assay: VEGF-induced HRMEC proliferation study; format: cell-based
Description: VEGF-Induced Human Retinal Microvascular Endothelial Cells (HRMEC) Proliferation Study
VEGF is a factor which promotes neovascularization and is thought to be one of the causes of development or progression of age-related macular degeneration (Prog. Retinal Eye Res., 22 (1), 1-29 (2003)). Therefore, the inhibitory effect of the compounds of the invention against VEGF-induced cell proliferation is assessed by using human retinal vascular endothelial cells (HRMEC).
HRMEC are seeded in 96-well plates at 2.0×10^3 cells/well, and is cultured under the conditions of 5% CO2/95% air for 24 hours. Then the culture medium is exchanged with CSC medium containing 10% fetal bovine serum and the cells are cultured for 24 hours. The culture broth is exchanged with vehicle medium or study medium containing the compound of the invention at 0.1, 1.0, 10, or 100 microM. After preincubation for 1 hour, VEGF-A solution is added to be a concentration of 10 ng/ml, and the cells cultured for 24 hours. The culture broth without adding VEGF-A solution is also treated in the same manner. Then to the culture broth is added CCK-8, and the cells are cultured for 3 hours, then the absorbance (OD492) is measured.
In accordance with the following formula, the cell proliferation inhibition rate (%) of each compound-treated group is calculated. The number of examples of each group is six. Cell proliferation inhibition rate (%)=([…])×100 [equation] BO: absorbance of vehicle-treated group BX: absorbance of compound-treated group BN: absorbance of non-treated group

SMILES: CC(C)(C)c1cc2c(cc1Cl)C=C(C(=O)O)[C@@H](C(F)(F)F)O2 [Compound A, (S)-6-chloro-7-(1,1-dimethylethyl)-2-trifluoromethyl-2H-1-benzopyran-3-carboxylic acid]
- CNV area ([1]; choroidal flat mount, day 15 after laser, FIG. 2): significantly reduced
- CNV area (pathological image) ([1]; histopathological specimens, FIG. 3): significantly reduced
- effect on the proliferation of HRMEC ([2]; Compound A alone, without VEGF-A, FIG. 1 left side): no effect
- inhibition of the proliferation of HRMEC induced by VEGF-A ([2]; VEGF-A 10 ng/ml, 24 hours, compound at 0.1, 1.0, 10, or 100 microM, FIG. 1 right side): inhibits the proliferation of HRMEC induced by VEGF-A in a dose-dependent manner
- inhibition of VEGF-A-induced cell proliferation ([2]; at 10 to 100 microM, VEGF-A 10 ng/ml): inhibits the cell proliferation to control levels
